The values that follow are results of earlier work, collected in patent US20120142750A1, “INDOLEAMINE 2,3-DIOXYGENASE PATHWAYS IN THE GENERATION OF REGULATORY T CELLS” (Regents of the University of Minnesota, priority 2005, published 2012).

The data set addresses IDO (Homo sapiens, UniProt P14902). Conditions: approximate literature value; cited from earlier work.

IDO, sequence (P14902 whole entry): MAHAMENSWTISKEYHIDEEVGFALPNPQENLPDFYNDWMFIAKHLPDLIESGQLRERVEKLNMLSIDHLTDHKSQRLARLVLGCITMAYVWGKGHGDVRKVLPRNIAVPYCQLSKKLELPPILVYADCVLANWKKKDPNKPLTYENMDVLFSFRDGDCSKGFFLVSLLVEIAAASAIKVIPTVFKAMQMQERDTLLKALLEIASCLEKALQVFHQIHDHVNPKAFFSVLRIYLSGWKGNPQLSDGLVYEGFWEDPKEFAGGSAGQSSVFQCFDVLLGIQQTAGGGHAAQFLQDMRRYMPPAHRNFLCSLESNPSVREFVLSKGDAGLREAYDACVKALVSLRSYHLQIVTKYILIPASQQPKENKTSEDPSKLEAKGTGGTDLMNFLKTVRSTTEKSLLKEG

Usually EC50 stands for the concentration needed to bring the measured effect to its halfway point. For `O=C1C2=C(Nc3cc([N+](=O)[O-])ccc3N2)OC1c1ccc(C2OC3=C(Nc4ccc([N+](=O)[O-])cc4N3)C2=O)cc1` (stereo not shown) [Inhibitor V], the EC50 was about 1000 nM.
